Reference: article PMC9186361 (Drug Delivery, 2022)
In brackets after ≈: the same amount, converted by molar mass.

Tests used:
[1] = Saturation solubility of rutin by shake flask method; format: physicochemical; conditions: thermodynamic from solid
thrombin = molecular target: T1, thrombin (Homo sapiens, UniProt P00734); test: Hydrolysis of chromogenic substrate S2238 by thrombin in vitro; format: biochemical; conditions: rutin up to 50 μM, 0.4 U/mL thrombin
T1 construct: Human thrombin was purchased from Hematologic Technologies Inc. (Essex Junction, VT); purchased Hematologic Technologies Inc. (Essex Junction, VT)
Excerpt: We tested the antithrombotic effects of NanoR and NaR ex vivo and in vivo. Thrombin plays a pivotal role in the coagulation process, and its amount reflects the hemostatic function (Mann, [2003]). […] In our clot formation study, the treatment with NanoR and NaR led to delayed clotting initiation time and a limited extent of clot formation. Again, NanoR exerted a stronger anticoagulatory effect than NaR, and excess exogenous PDI restored the coagulation function of pretreated plasma in clot formation assay. […] The link between obstructive atherosclerosis in the epicardial coronary arteries and myocardial ischemia is well established. In the past several decades, however, a number of studies have discovered that coronary microvascular dysfunction and remodeling contribute to myocardial ischemia in patients with normal coronary arteries. […] Recently, a novel two-stage mechanism for the action of FeCl3 in thrombus formation has been proposed. The first stage is based on colloidal chemistry principles whereby cells and plasma proteins adhere and aggregate due to the binding of negatively charged proteins to positively charged iron species. The extent of this stage is dependent on effective FeCl3 concentration, which is governed by intraluminal mass transport. […] (A) The hydrolysis of chromogenic substrate S2238 by different concentrations of thrombin was determined.

PDI = system: PDI; parameters: method as in Jasuja et al., 2012; conditions: insulin-based turbidimetric assay; 95% CI 1.1–10.7 μM; ref Jasuja et al., 2012; read-out: IC50 of PDI inhibition; cited from earlier work

C[C@@H]1O[C@@H](OC[C@H]2O[C@@H](Oc3c(-c4ccc(O)c(O)c4)oc4cc(O)cc(O)c4c3=O)[C@H](O)[C@@H](O)[C@@H]2O)[C@H](O)[C@H](O)[C@H]1O [rutin, quercetin-3-O-rutinoside] gave a solubility at 72 h ([1]; organic solvent or mixture, in 1,2-propylene glycol, 37 °C, 72 h) of 32 ± 2 mg/mL (≈ 52.4 mM), a solubility at 72 h ([1]; self-emulsifying formulation F2, 37 °C, in formulation F2) of 24.3 ± 3.2 mg/mL (≈ 39.8 mM) and a solubility at 72 h ([1]; self-emulsifying formulation F5, 37 °C, in formulation F5) of 19.2 ± 2.8 mg/mL (≈ 31.4 mM). For the same molecule, the solubility at 72 h ([1]; self-emulsifying formulation F7, 37 °C, in formulation F7) was 16.2 ± 3.7 mg/mL (≈ 26.5 mM), the solubility at 72 h ([1]; in Labrasol, 37 °C, 72 h) was 5.2 ± 0.18 mg/mL (≈ 8.52 mM) and the “effect on thrombin activity (hydrolysis of S2238)” value (thrombin) was “did not inhibit thrombin proteolytic activity”. For the same molecule, the “effect on thrombin activity (hydrolysis of S2238)” value (thrombin; listed as native rutin) was “did not affect the activity of thrombin” and the IC50 (PDI) was 6.1 µM.
